What was measured:
[1] = In vitro liver microsomal stability assay, mouse; assay type: in vitro ADME; conditions: mouse liver microsomes, final concentration 2.0 nM, with or without NADPH, within 60 minutes; read-out: Mouse liver microsomes t1/2
Procedure: (§1) Experiments on the stability of the compound of the present disclosure in liver microsomes were performed. The compounds to be tested (final concentration: 2.0 nM) were co-incubated with human/mouse liver microsomes with or without NADPH, and the concentration of compounds in the incubation supernatant was detected within 60 minutes.

[2] = system: TOV21G (ovarian cancer) cells; assay: In vitro cell proliferation inhibition assay (CellTiter-Glo), TOV21G; assay type: cell-based, human; conditions: 120 hours
Procedure: (§2) By detecting the effect of compound on cell activity in vitro in the tumor cell lines TOV21G (ovarian cancer) and MV4-11 (leukemia), the effect of compound inhibiting cell proliferation was studied in this assay.
(§3) TOV21G cells and MV4-11 cells were purchased from American Type Culture Collection (ATCC).
TOV21G cells were cultured in MCDB105/M199 medium (containing 15% […]), and used for testing when the cell confluence reaches 85% or more. Each well of a 96-well culture plate was inoculated with about 1000 cells, cultured for 24 hours, and treated with different concentrations (0-10 μM) of compound solution to be tested in triplex. Blank wells (contains medium only) and control wells (seeded cells was not treated with drug) were set. Cells were cultured for 120 hours, 40 μL Cell Titer-Glo solution (Promega, #G7573) were added to each well, incubated with shaking for 20 min in the dark, 100 μL solution was transferred from each well to a 96-well white plate (Corning, #3917), and the luminescence value was read by Biotek Synergy H1 multifunctional microplate reader.

[3] = In vitro liver microsomal stability assay, human; assay type: in vitro ADME; conditions: human liver microsomes, final concentration 2.0 nM, with or without NADPH, within 60 minutes; read-out: Human liver microsomes t1/2
Procedure: as §1

[4] = system: MV4-11 (leukemia) cells; assay: In vitro cell proliferation inhibition assay (CellTiter-Glo), MV4-11; assay type: cell-based, human; conditions: MV4-11 cells
Procedure: as §2, §3
MV-4-11 cells were cultured in IMDM medium (containing 20% FBS), each well of a 96-well culture plate was inoculated with about 10000 cells, and treated with different concentrations (0-10 μM) of compounds to be tested in triplex. Blank wells (containing medium only) and control wells (inoculated with cells but not treated with drug) were set. Cells were cultured for 120 hours, 40 μL Cell Titer-Glo solution was added to each well, incubated with shaking for 20 min in the dark, 100 μL solution was transferred from each well to a 96-well white plate, and the luminescence value was read by Biotek Synergy H1 multifunctional microplate reader. Inhibition rate (%)=100%×(control well−test well)/(control well−blank well)

[5] = In vivo pharmacokinetics assay in mice; conditions: mouse; male ICR mice, oral gavage 10 mg/kg, plasma
Procedure: The in vivo pharmacokinetics of the compounds was studied.
Male ICR mice (3 in each group) were orally administered by gavage with a dose of 10 mg/kg. Plasma samples were collected before (0 h) and after administration (0.25, 0.5, 1, 2, 4, 6, 8, 24 h), and the collected samples were analyzed by LC/MS and data were collected. The collected analytical data were used to calculate the relevant pharmacokinetic parameters by Analyst v1.6.2 (AB Applied Biosystems Company, USA).

[6] = molecular target: ATR kinase (Homo sapiens (Human), UniProt Q13535); assay: ATR kinase activity assay (time-resolved fluorescence, p53 substrate phosphorylation); assay type: biochemical
Procedure: Biotinylated protein derived from p53 (Eurofins, art. No.: 14-952) was phosphorylated with ATR kinase. The amount of phosphorylated protein was determined by time-resolved fluorescence in this assay. The amount of phosphorylated protein was detected by anti-p53-phospho-(serine 15)-K-specific antibody (Cisbio, art. No.: 61GSTDLA) and d2 labeled anti-GST antibody (Cisbio, art. No. 61P08KAE). Before the experiment, the following working solution was prepared as required: 1× reaction buffer (20 mM HEPES PH8.0, 1% glycerol, 0.01% Brij-35), dilution buffer (20 mM HEPES PH8.0, 1% glycerol, 0.01% Brij-35, 5 mM DTT and 1% BSA), stop solution (20 mM HEPES PH8.0, 1% glycerol, 0.01% Brij-35, 250 mM EDTA), detection buffer (50 mM HEPES pH7.0, 150 mM NaCl, 267 mM KF, 0.1% sodium cholate, 0.01% Tween-20, 0.0125% sodium azide). The reagents used above are purchased from Sigma or Invitrogen, except for those where the manufacturer was mentioned.
Operations are as follows:
4× gradient dilution of compound solutions was prepared with 1× reaction buffer to obtain 9 compound solutions of different concentrations, and 2.5 μL 4× gradient dilution of compound solutions was added to a 384-well analysis plate (784075, Greiner). 4× p53 substrate working solution (40 nM) was prepared with 1× reaction buffer, and 2.5 μL 4× p53 substrate working solution was added to the 384-well analysis plate. 4×ATR/ATRIP working solution (12.8 ng/μL) was prepared with dilution buffer, and 2.5 μL 4×pATR/ATRIP working solution was added to the 384-well analysis plate. 4×ATP working solution (2 mM) was prepared with deionized water, 2.5 μL 4×ATP working solution was added to the 384-well analysis plate, and incubated at room temperature in dark for 30 minutes. 5 μL stop solution was added to the 384 analysis plate. Finally, 5 μL test mixture (0.084 ng/μL Anti-phospho-p53(ser15)-K and 5 ng/μL Anti-GST-d2) was added to the 384 well analysis plate, incubated overnight at room temperature, and the fluorescence signal was detected with ENVISION (Perkinelmer) instrument (excitation wavelength: 320 nm, emission wavelength: 665 nm and 615 nm). The inhibition rate in each well was calculated by the fluorescence intensity value of each hole: ER (Emission Ratio)=(Fluorescence intensity at 665 nm/Fluorescence intensity at 615 nm); inhibition rate=(ER positive-ER test compound)/(ER positive-ER negative)×100%, the IC50 value of compounds were calculated by standard parameter fitting software (GraphPad Prism 6.0).

Sequence of ATR kinase (Q13535 whole entry): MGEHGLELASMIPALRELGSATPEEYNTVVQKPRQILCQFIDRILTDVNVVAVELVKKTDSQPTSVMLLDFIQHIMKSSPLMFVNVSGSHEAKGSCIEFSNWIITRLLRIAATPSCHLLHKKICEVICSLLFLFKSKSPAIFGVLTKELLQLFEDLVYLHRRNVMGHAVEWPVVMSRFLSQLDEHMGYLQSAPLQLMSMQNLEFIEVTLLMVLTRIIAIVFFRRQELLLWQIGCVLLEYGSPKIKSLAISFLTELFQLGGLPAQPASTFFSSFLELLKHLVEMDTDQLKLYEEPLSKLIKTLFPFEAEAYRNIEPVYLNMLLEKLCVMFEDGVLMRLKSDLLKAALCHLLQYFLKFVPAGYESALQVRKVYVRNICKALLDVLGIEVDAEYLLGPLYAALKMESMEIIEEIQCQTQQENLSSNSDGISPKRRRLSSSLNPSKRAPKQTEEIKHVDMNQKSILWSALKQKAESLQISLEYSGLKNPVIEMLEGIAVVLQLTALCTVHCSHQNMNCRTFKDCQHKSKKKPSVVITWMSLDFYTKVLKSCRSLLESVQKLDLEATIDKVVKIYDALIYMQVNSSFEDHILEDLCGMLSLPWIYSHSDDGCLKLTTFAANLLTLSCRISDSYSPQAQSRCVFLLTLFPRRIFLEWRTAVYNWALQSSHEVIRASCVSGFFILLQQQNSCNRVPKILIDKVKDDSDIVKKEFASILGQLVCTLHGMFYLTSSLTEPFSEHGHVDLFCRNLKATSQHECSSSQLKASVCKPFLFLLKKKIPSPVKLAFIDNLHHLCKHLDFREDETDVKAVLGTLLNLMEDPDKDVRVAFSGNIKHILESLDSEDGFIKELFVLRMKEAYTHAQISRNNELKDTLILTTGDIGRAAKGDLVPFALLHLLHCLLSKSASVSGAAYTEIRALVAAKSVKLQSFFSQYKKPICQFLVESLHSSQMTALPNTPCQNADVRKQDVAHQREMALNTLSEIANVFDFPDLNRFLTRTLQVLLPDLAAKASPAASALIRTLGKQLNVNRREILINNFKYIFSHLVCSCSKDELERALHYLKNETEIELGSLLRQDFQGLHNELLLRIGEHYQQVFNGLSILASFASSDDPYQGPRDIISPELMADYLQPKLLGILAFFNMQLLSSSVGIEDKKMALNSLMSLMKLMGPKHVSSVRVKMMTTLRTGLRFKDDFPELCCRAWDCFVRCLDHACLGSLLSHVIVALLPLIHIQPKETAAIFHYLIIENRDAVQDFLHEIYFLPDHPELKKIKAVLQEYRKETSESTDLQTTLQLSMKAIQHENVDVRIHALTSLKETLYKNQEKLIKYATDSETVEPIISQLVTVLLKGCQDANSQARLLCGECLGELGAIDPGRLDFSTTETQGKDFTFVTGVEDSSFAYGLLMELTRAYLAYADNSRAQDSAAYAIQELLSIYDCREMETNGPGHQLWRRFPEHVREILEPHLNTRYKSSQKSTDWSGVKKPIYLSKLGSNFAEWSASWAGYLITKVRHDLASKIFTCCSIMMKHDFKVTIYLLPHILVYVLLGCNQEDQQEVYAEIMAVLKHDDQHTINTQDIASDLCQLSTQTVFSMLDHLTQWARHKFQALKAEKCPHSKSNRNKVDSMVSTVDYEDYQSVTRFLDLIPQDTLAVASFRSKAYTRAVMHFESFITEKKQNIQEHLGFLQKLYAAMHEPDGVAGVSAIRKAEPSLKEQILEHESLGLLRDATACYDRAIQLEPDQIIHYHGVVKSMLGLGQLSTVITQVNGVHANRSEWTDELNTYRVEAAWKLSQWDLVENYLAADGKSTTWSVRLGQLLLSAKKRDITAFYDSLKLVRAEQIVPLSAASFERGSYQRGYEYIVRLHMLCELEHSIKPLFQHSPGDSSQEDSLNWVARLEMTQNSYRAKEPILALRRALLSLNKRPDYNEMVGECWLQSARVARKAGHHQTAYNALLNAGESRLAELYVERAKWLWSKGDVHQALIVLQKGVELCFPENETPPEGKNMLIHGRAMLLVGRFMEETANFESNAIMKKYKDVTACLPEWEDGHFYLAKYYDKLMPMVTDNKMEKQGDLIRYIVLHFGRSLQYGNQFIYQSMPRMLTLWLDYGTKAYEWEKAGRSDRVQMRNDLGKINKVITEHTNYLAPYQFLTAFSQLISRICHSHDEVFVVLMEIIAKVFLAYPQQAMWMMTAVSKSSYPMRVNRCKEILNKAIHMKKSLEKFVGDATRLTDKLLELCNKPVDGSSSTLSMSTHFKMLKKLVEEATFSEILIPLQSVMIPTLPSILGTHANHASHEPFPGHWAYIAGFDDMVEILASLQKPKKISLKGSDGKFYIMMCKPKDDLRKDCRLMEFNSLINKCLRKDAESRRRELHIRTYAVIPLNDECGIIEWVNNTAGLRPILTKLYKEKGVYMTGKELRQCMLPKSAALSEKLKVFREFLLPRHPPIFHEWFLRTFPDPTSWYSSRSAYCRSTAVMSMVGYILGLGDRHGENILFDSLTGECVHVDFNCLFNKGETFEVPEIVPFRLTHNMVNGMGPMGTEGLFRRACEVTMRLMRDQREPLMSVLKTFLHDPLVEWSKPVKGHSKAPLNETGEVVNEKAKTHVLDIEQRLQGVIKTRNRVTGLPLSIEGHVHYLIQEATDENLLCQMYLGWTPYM
Sequence of ATR kinase (Q8WXE1 whole entry partner): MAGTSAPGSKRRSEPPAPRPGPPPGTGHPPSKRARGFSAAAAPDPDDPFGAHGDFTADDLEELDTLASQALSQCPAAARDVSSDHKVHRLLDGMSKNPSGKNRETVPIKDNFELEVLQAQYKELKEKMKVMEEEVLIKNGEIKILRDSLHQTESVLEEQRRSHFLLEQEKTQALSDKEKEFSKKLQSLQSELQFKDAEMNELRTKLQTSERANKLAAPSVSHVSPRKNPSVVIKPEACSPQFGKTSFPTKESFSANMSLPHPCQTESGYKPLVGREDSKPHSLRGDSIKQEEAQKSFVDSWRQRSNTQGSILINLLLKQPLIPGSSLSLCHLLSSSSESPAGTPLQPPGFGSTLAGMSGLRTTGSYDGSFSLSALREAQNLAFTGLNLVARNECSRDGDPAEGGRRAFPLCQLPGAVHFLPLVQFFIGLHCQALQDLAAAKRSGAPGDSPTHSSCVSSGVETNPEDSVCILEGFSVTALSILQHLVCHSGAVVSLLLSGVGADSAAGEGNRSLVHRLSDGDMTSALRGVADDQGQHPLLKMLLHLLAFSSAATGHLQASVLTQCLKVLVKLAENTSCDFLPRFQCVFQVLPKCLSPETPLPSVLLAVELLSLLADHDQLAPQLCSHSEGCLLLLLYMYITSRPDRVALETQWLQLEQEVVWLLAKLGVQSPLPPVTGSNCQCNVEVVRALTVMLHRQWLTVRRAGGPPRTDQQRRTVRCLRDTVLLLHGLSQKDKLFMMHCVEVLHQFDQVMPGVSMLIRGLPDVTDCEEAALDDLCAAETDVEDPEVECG

Structure (SMILES) | IC50 ([2]; Homo sapiens) [µM] | IC50 ([4]; Homo sapiens, MV4-11, 120 h) [µM] | IC50 [6] [µM] | IC50 [2] [µM] | IC50 ([4]; 120 hours) [µM] | further results
CNc1nc2ccccc2n1-c1nc(-c2c(C)nn(C3CCNCC3)c2C(F)(F)F)cc(N2CCOC[C@H]2C)n1 [Compound D24] | 0.12 | 0.08 | – | – | – | half-life at 2 nM [1]: 1.83 h; half-life at 2 nM [3]: 3.38 h; AUC [5]: 5.45 µg·h/mL; Cmax [5]: 0.467 µg/mL; Tmax [5]: 5.3 h; half-life [5]: 3.1 h
Cc1nn(C2CCNCC2)c(C(F)(F)F)c1-c1cc(N2CCOC[C@H]2C)nc(-c2cc(F)cc3[nH]ccc23)n1 [Compound D28] | 0.28 | 0.23 | < 0.001 | – | – | AUC [5]: 2.16 µg·h/mL; Cmax [5]: 0.199 µg/mL; Tmax [5]: 4.7 h; half-life [5]: 3.9 h
CNc1nc2ccccc2n1-c1nc(-c2c(C(F)(F)F)nn(C3CCNCC3)c2C)cc(N2CCOC[C@H]2C)n1 [Compound D56] | – | – | 0.009 | 0.44 | 0.32 | –
Cc1c(-c2cc(N3CCOC[C@H]3C)nc(-c3cncc4[nH]ccc34)n2)c(C(F)(F)F)nn1C1CCNCC1 [Compound D20] | 0.16 | 0.07 | < 0.001 | – | – | –
Cc1nn(C2CCN(C)CC2)c(C)c1-c1cc(N2CCOC[C@H]2C)nc(-c2ccnc3[nH]ccc23)n1 [Compound D4] | – | – | 0.006 | 0.33 | 0.19 | –
Cc1nn(C2CCNCC2)c(C(F)(F)F)c1-c1cc(N2CCOC[C@H]2C)nc(-c2ccnc3[nH]ccc23)n1 [Compound D1] | 0.26 | 0.12 | 0.005 | – | – | half-life at 2 nM [1]: 1.03 h; half-life at 2 nM [3]: 5.63 h
Cc1nn(C2CCNCC2)c(C(F)(F)F)c1-c1cc(N2CCOC[C@H]2C)nc(-n2cnc3ccc(F)cc32)n1 [Compound D30b] | – | – | 0.054 | 2.22 | 0.33 | –
Cc1c(-c2cc(N3CCOC[C@H]3C)nc(-c3cc(F)cc4[nH]ccc34)n2)c(C(F)(F)F)nn1C1CCNCC1 [Compound D47] | – | – | 0.005 | 0.6 | 0.55 | –
Cc1nn(C2CCNCC2)c(C(F)(F)F)c1-c1cc(N2CCOC[C@H]2C)nc(-c2cccc3[nH]ccc23)n1 [Compound D17] | 0.23 | 0.14 | 0.001 | – | – | half-life at 2 nM [1]: 2.83 h; half-life at 2 nM [3]: 5.05 h
Cc1nn(C2CCNCC2(F)F)c(C)c1-c1cc(N2CCOC[C@H]2C)nc(-c2ccnc3[nH]ccc23)n1 (stereo partly shown) [Compound D57] | – | – | 0.016 | 0.41 | 0.22 | –
Cc1nn(C2CCNCC2)c(C(F)(F)F)c1-c1cc(C23CCOCC2C3)nc(-c2cc(F)cc3[nH]ccc23)n1 (stereo not shown) [Compound D49] | – | – | 0.002 | 0.5 | 0.55 | –
Cc1nn([C@H]2CCNCC2(F)F)c(C)c1-c1cc(N2CCOC[C@H]2C)nc(-c2cc(F)cc3[nH]ccc23)n1 [Compound D54a] | 0.18 | 0.09 | 0.004 | – | – | –
Cc1nn(C[C@@H]2CCCN2)c(C(F)(F)F)c1-c1cc(N2CCOC[C@H]2C)nc(-c2cc(F)cc3[nH]ccc23)n1 [Compound D52] | – | – | 0.002 | 0.37 | 0.59 | –
CNc1nc2ccccc2n1-c1nc(-c2c(C(F)(F)F)nn(C3CCCNC3)c2C)cc(N2CCOC[C@H]2C)n1 (stereo partly shown) [Compound D45] | – | – | 0.01 | 0.92 | 0.64 | –
CNc1nc2cc(F)ccc2n1-c1nc(-c2c(C(F)(F)F)nn(C3CCCNC3)c2C)cc(N2CCOC[C@H]2C)n1 (stereo partly shown) [Compound D33] | – | – | 0.013 | 1.45 | 1.31 | –
CNc1nc2ccccc2n1-c1nc(-c2c(C)nn(C3CCNCC3)c2C(F)(F)F)cc(C23CCOCC2C3)n1 (stereo not shown) [Compound D48] | – | – | 0.002 | 0.55 | 0.2 | –
CNc1nc2cc(F)ccc2n1-c1nc(-c2c(C)nn(CS(C)(=O)=O)c2C(F)(F)F)cc(N2CCOC[C@H]2C)n1 [Compound D41] | 0.94 | 0.57 | 0.029 | – | – | –
CNc1nc2ncccc2n1-c1nc(-c2c(C)nn(C3CCNCC3)c2C(F)(F)F)cc(N2CCOC[C@H]2C)n1 [Compound D26] | – | – | 0.012 | 3.58 | 3.09 | –
Cc1nn(C2CCNCC2)c(C(F)(F)F)c1-c1cc(N2CCOC[C@H]2C)nc(-n2c(N)nc3ccccc32)n1 [Compound D6] | 0.24 | 0.17 | < 0.001 | – | – | –
Cc1c(-c2cc(N3CCOC[C@H]3C)nc(-c3cccc4[nH]ccc34)n2)c(C(F)(F)F)nn1C1CCNCC1 [Compound D18] | 0.51 | 0.28 | < 0.001 | – | – | –
CNc1nc2cc(F)ccc2n1-c1nc(-c2c(C)nn(CC3(C)COC3)c2C(F)(F)F)cc(N2CCOC[C@H]2C)n1 [Compound D51] | – | – | 0.032 | 0.68 | 0.66 | –
Cc1nn(C(=O)N2CCNCC2)c(C)c1-c1cc(N2CCOC[C@H]2C)nc(-c2cc(F)cc3[nH]ccc23)n1 [Compound D55] | – | – | 0.003 | 0.19 | 0.22 | –

— patent US12544382B2, “2, 4, 6-tri-substituted pyrimidine compound as ATR kinase inhibitor” (BEIJING TIDE PHARMACEUTICAL CO., LTD., priority 2019, dated 2026)
